From patent US20240217963A1, “RECEPTOR-INTERACTING PROTEIN 1 INHIBITORS, PREPARATIONS, AND USES THEREOF” (SIRONAX LTD., priority 2021, published 2024) come the findings set out here.

Usually EC50 stands for the concentration that produces a half-maximal response.

SMILES strings stand for the structures.

For the test, the target named is T1, RIP1 (Homo sapiens, UniProt Q13546).
T1 sequence (Q13546 1-671): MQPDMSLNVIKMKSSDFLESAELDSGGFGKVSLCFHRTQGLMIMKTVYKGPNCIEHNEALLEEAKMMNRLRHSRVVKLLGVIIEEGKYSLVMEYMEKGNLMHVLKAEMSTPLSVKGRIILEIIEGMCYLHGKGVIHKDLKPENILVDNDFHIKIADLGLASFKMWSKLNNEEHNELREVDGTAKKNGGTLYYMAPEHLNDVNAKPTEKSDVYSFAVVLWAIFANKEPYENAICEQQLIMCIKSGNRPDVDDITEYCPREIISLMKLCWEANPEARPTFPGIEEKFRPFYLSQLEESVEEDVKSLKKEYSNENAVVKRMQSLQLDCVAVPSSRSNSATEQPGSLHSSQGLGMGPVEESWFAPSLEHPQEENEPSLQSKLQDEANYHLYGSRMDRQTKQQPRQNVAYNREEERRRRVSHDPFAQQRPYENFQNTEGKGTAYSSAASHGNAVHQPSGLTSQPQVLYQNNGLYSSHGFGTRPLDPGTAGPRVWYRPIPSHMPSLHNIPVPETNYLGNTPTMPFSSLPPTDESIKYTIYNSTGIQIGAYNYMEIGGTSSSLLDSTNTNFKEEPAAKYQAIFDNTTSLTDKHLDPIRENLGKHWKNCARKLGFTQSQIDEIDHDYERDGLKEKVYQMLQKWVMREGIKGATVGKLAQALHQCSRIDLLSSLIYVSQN
The experiment in a line: Cellular RIP1 inhibitory activity: HT-29 necroptosis (TNFα/SMAC mimetic/zVAD-FMK) CellTiter-Glo viability assay. It counts as cell-based. As to conditions: HT-29 cells, TNF-α 10 ng/ml + SMAC mimetic 6 μM + zVAD-FMK 10 μM, 20 hours, geometric mean, read-out: EC50 Values of in vitro Cellular RIP1 Inhibitory Activity. The procedure:
Compounds 1-99 (denoted as Cmpd Nos. 1 through 99 in Table 2 below) of the disclosure were tested for binding and cellular RIP1 inhibitory activity following the experimental procedures described below. Cell Seeding • 1. HT-29 cells were checked every day to make sure that they were healthy and growing as expected. They were subjected to sub-culturing when they were approximately 80% confluent. • 2. The culture medium, McCOY's 5 A medium (Gibco, Cat No. 16600-082) with 10% fetal bovine serum or FBS (Gibco, Cat No. 10099-141C), was pre-warmed in a 37° C. water bath for at least 30 min. • 3. When the cells had reached a desired level of confluency of 80% in a T75 flask, the medium was aspirated, and the cells were washed with warm phosphate buffered saline or PBS two times. • 4. 2-3 ml fresh warm trypsin (Gibco, Cat No. 25200-056) solution was added to the washed cells. The flask with the cells was transferred to a 37° C. incubator. • 5. After 5 minutes, the side of the flask was tapped, and the flask was examined under a microscope for detachment of the cells to the flask. If necessary, the cells were kept in the incubator for an additional 5-10 minutes, with occasional tapping, until lifting was complete. • 6. The trypsin reaction was neutralized by transferring 6-9 ml cell culture medium to sterile 15 ml conical tubes, and by centrifuging the cell culture at 300×g for 7 minutes to pellet the cells (supernatant decanted). • 7. The cells were resuspended in fresh cell culture medium and the cell counting was performed using a hemocytometer. • 8. 100 μl of the resuspended cell culture medium containing ˜5,000 cells were transferred into each well of the sterile 96-well cell culture plate (Corning 3903) and cultured overnight at 37° C. with 5% CO2. Compound Titration and Treatment • 1. All test compounds were dissolved in DMSO (Dimethyl sulfoxide) to create a 20 mM stock. • 2. 3 μl of each compound 20 mM stock was mixed with 27 μl DMSO, and the compound solution was further diluted at a titration ratio of 1:3 (20 μl compound solution+40 μl DMSO) till the 10 points end. • 3. All culture medium was removed from assay plates filled with HT-29 cell cultures. […] 0.5 μL of the diluted compound solution was added to the corresponding 96-well assay plates. • 5. The assay plates were incubated for 20 hours at 37° C. with 5% CO2. Cell Viability Detection • 1. The CellTiter-Glo® Luminescent Cell Viability Assay was employed to detect the ATP levels of viable HT-29 cells. • 2. The CellTiter-Glo® buffer and the lyophilized substrate were equilibriated to room temperature prior to use. • 3. The CellTiter-Glo® substrate was resuspended with CellTiter-Glo® buffer, then mixed by gently vortexing to obtain a homogeneous solution. • 4. 20 μl the enzyme/substrate mixture was transferred by multi-channel pipetting into 96-well assay plates. • 5. The assay plates were placed on an orbital shaker and the contents were shaken for 3 minutes to induce cell lysis. • 6. The assay plates were incubated at room temperature for 10 minutes to stabilize the luminescent signal. • 7. The luminescence signals were read and recorded with EnVision. • 8. The geometric mean EC50 values were calculated from 10 points response dose with duplicates. In Table 2, activity is provided as follows: +++=0.1 nM≤EC50<100 nM; ++=100 nM≤EC50<1000 nM; +=1000 nM≤EC50<10000 nM.
(In general: In ATP-based viability assays light output follows the ATP content of the culture.)

With `CCN(Cc1nc(C)cs1)C(=O)C1CCN(c2ncc(F)c(-c3c(C)cnn3C)n2)CC1` [Compound 72, 1-(4-(1,4-dimethyl-1H-pyrazol-5-yl)-5-fluoropyrimidin-2-yl)-N-ethyl-N-((4-methylthiazol-2-yl)methyl)piperidine-4-carboxamide], the EC50 lay in the range of 0.1 to 100 nM. As to `Cc1cnn(C)c1-c1nc(N2CCC(C(=O)N(O)Cc3cc(F)cc(C#N)c3)CC2)ncc1F` [Compound 32, N-(3-cyano-5-fluorobenzyl)-1-(4-(1,4-dimethyl-1H-pyrazol-5-yl)-5-fluoropyrimidin-2-yl)-N-hydroxypiperidine-4-carboxamide], the EC50 is 0.1 to 100 nM. As to `Cc1cnn(C)c1-c1nc(N2CCC(C(=O)NCc3cscn3)CC2)ncc1F` [Compound 57, 1-(4-(1,4-dimethyl-1H-pyrazol-5-yl)-5-fluoropyrimidin-2-yl)-N-(thiazol-4-ylmethyl) piperidine-4-carboxamide], the 50% effective concentration (EC50) was 100 to 1000 nM.

In the case of `[2H]C([2H])([2H])N(C(=O)C1CCN(c2ncc(F)c(-n3nc(C)nc3C)n2)CC1)C([2H])([2H])c1cc(F)cc(F)c1F` [Compound 76, 1-(4-(3,5-dimethyl-1H-1,2,4-triazol-1-yl)-5-fluoropyrimidin-2-yl)-N-(methyl-d3)-N-((2,3,5-trifluorophenyl)methyl-d2)piperidine-4-carboxamide], the EC50 was 0.1 to 100 nM. Under `Cc1cnn(C)c1-c1nc(N2CCC(C(=O)N(O)Cc3cc(F)cc(F)c3)CC2)ncc1F` [Compound 4, N-(3,5-difluorobenzyl)-1-(4-(1,4-dimethyl-1H-pyrazol-5-yl)-5-fluoropyrimidin-2-yl)-N-hydroxypiperidine-4-carboxamide] stands 0.1 to 100 nM; under `Cc1cnn(C)c1-c1cc(N2CCC(C(=O)N(C)Cc3cc(F)cc(F)c3)CC2)ncn1` [Compound 88, N-(3,5-difluorobenzyl)-1-(6-(1,4-dimethyl-1H-pyrazol-5-yl)pyrimidin-4-yl)-N-methylpiperidine-4-carboxamide], 0.1 to 100 nM. The same measure for `Cc1cnn(C)c1-c1nc(N2CCC(C(=O)N(O)Cc3ncccc3Cl)CC2)ncc1F` [Compound 9, N-((3-chloropyridin-2-yl)methyl)-1-(4-(1,4-dimethyl-1H-pyrazol-5-yl)-5-fluoropyrimidin-2-yl)-N-hydroxypiperidine-4-carboxamide]: 0.1 to 100 nM. Under `CCN(Cc1sc(C)nc1C)C(=O)C1CCN(c2ncc(F)c(-c3c(C)cnn3C)n2)CC1` [Compound 70, 1-(4-(1,4-dimethyl-1H-pyrazol-5-yl)-5-fluoropyrimidin-2-yl)-N-((2,4-dimethylthiazol-5-yl)methyl)-N-ethylpiperidine-4-carboxamide] stands 1000 to 10000 nM; under `Cc1nc(C)n(-c2nc(N3CCC(C(=O)NCc4cc(F)cc(F)c4)CC3)ncc2F)n1` [Compound 2, N-(3,5-difluorobenzyl)-1-(4-(3,5-dimethyl-1H-1,2,4-triazol-1-yl)-5-fluoropyrimidin-2-yl)piperidine-4-carboxamide], 0.1 to 100 nM.

`Cc1cnn(C)c1-c1nc(N2CCC(C(=O)N(C)Cc3ccn(C)n3)CC2)ncc1F` [Compound 81, 1-(4-(1,4-dimethyl-1H-pyrazol-5-yl)-5-fluoropyrimidin-2-yl)-N-methyl-N-((1-methyl-1H-pyrazol-3-yl)methyl)piperidine-4-carboxamide]: the EC50 was 0.1 to 100 nM. As for `CCN(Cc1nccs1)C(=O)C1CCN(c2ncc(F)c(-c3c(C)cnn3C)n2)CC1` [Compound 96, 1-(4-(1,4-dimethyl-1H-pyrazol-5-yl)-5-fluoropyrimidin-2-yl)-N-ethyl-N-(thiazol-2-ylmethyl)piperidine-4-carboxamide], the EC50 lay within 0.1 to 100 nM.

For the compound `Cn1ncnc1-c1nc(N2CCC(C(=O)N(O)Cc3cc(F)cc(F)c3)CC2)ncc1F` [Compound 15, N-(3,5-difluorobenzyl)-1-(5-fluoro-4-(1-methyl-1H-1,2,4-triazol-5-yl)pyrimidin-2-yl)-N-hydroxypiperidine-4-carboxamide], the EC50 fell in the range of 0.1 to 100 nM. Regarding `Cc1cnn(C)c1-c1nc(N2CCC(F)(C(=O)N(O)Cc3cc(F)cc(F)c3)CC2)ncc1F` [Compound 17, N-(3,5-difluorobenzyl)-1-(4-(1,4-dimethyl-1H-pyrazol-5-yl)-5-fluoropyrimidin-2-yl)-4-fluoro-N-hydroxypiperidine-4-carboxamide], the EC50 is 0.1 to 100 nM. Take `Cc1cnn(C)c1-c1cc(N2CCC(C(=O)NCc3cc(F)cc(F)c3)CC2)ncn1` [Compound 42, N-(3,5-difluorobenzyl)-1-(6-(1,4-dimethyl-1H-pyrazol-5-yl)pyrimidin-4-yl)piperidine-4-carboxamide]: the concentration giving a half-maximal response (EC50) lay in the range of 100 to 1000 nM. On to `Cc1cnn(C)c1-c1nc(N2CCC(C(=O)N(O)Cc3cnco3)CC2)ncc1F` [Compound 23, 1-(4-(1,4-dimethyl-1H-pyrazol-5-yl)-5-fluoropyrimidin-2-yl)-N-hydroxy-N-(oxazol-5-ylmethyl)piperidine-4-carboxamide], for which the EC50 lay within 0.1 to 100 nM. The same measure for `Cc1cnn(C)c1-c1nc(N2CCC(C(=O)N(O)Cc3ccnn3C)CC2)ncc1F` [Compound 27, 1-(4-(1,4-dimethyl-1H-pyrazol-5-yl)-5-fluoropyrimidin-2-yl)-N-hydroxy-N-((1-methyl-1H-pyrazol-5-yl)methyl)piperidine-4-carboxamide]: 100 to 1000 nM; for `Cc1cnn(C)c1-c1nc(N2CCC(C(=O)NCc3cnn(C)c3)CC2)ncc1F` [Compound 45, 1-(4-(1,4-dimethyl-1H-pyrazol-5-yl)-5-fluoropyrimidin-2-yl)-N-((1-methyl-1H-pyrazol-4-yl)methyl)piperidine-4-carboxamide]: 1000 to 10000 nM. Under `CCN(Cc1cc(C)n(C)n1)C(=O)C1CCN(c2ncc(F)c(-c3c(C)cnn3C)n2)CC1` [Compound 80, N-((1,5-dimethyl-1H-pyrazol-3-yl)methyl)-1-(4-(1,4-dimethyl-1H-pyrazol-5-yl)-5-fluoropyrimidin-2-yl)-N-ethylpiperidine-4-carboxamide] stands 100 to 1000 nM; under `CN(Cc1cc(F)cc(F)c1F)C(=O)C1CCN(c2ncc(F)c(-c3ncnn3C)n2)CC1` [Compound 68, 1-(5-fluoro-4-(1-methyl-1H-1,2,4-triazol-5-yl)pyrimidin-2-yl)-N-methyl-N-(2,3,5-trifluorobenzyl)piperidine-4-carboxamide], 0.1 to 100 nM; under `Cc1nc(C)n(-c2nc(N3CCC(C(=O)NCc4cc(F)cc(F)c4F)CC3)ncc2F)n1` [Compound 5, 1-(4-(3,5-dimethyl-1H-1,2,4-triazol-1-yl)-5-fluoropyrimidin-2-yl)-N-(2,3,5-trifluorobenzyl)piperidine-4-carboxamide], 0.1 to 100 nM. Regarding `Cc1cnn(C)c1-c1ccc(OC2CC(C(=O)N(O)Cc3cc(F)cc(F)c3)C2)c(F)n1` (stereo not drawn) [Compound 54, N-(3,5-difluorobenzyl)-3-((6-(1,4-dimethyl-1H-pyrazol-5-yl)-2-fluoropyridin-3-yl)oxy)-N-hydroxycyclobutane-1-carboxamide], the EC50 is 100 to 1000 nM.
